This is an account of results in patent US20160115225A1, “Methods of Reducing Methylglyoxal (MGO) Modification of Recombinant Proteins in Cell Culture” (AbbVie Inc., priority 2014, published 2016).

The subject of experiment [1] is adalimumab producing cell line 2. Description: Lys-C peptide mapping for MGO modification of adalimumab, shake flask culture, cell line 2. In kind it is cell-based. Conditions: Example 5; day 11 harvest; control 1.93%. How it is done: For shake flask experiments (Example 4), duplicate 500 mL Corning vented non-baffled shake flasks (200 mL working volume) were used for each condition. Similar to the seed train stage, the production stage shake flasks were kept in incubators maintained at 36° C. and 5% CO2 on shaker platforms that were set at 140 rpm.
Typical trypsin digestion for peptide mapping cleaves a denatured, reduced and alkylated protein at the carboxyl side of the two basic amino acids, lysine and arginine. Methylglyoxal (MGO) is a small molecule metabolite derived as a glycolysis byproduct which can modify arginine residues. […] The challenge of quantifying the amount of MGO modified peptide is that, it is not compared to an equivalent non-modified peptide but rather to two parental cleaved peptides. […] In order to determine a truly accurate direct measurement of an MGO-modified peptide, it is compared to its non-modified counterpart and expressed as a percentage. […] The result is a direct comparison of the same peptide with and without an MGO modification, which provides a high degree of accuracy in quantifying even trace levels of the modified species.
Procedure: Samples were dilated to a nominal concentration of 4 mg/mL. […] Samples were analyzed by LC/MS peptide mapping. […] Eluting peaks were monitored using a Thermo Scientific LTQ-Orbitrap Mass Spectrometer. […]

For experiment [2], the system named is adalimumab producing cell line 1. Nature of the experiment: Glucose consumption of the culture, cell line 1. Format: cell-based. The conditions noted are these: Example 3; arginine supplementation 4 g/l. How it is done:
For the bioreactor (3 L Applikon) experiments (Examples 1, 2 and 3), 3 L, bioreactors (1.5 L working volume) were initiated at 35° C. (cell line 1) and 36° C. (cell line 2), 30% DO, 200 rpm, pH of 7.1. In some of the conditions, pH was ramped down to 6.8 in three days and kept at pH 6.8 thereafter. The inclusion of pH ramp for a particular condition is indicated by the final pH in the experimental design. If the final pH is 7.1, then it indicates no pH ramp was performed, whereas if the final pH is 6.8, a pH ramp was performed on day 3 from pH 7.1 to pH 6.8. In some of the conditions, a temperature shift was performed. When temperature shift was performed, the temperature was lowered to 33° C. Again, the conditions where such a temperature shift was performed can be identified from the final temperature in the experimental design. Cultures were run in extended batch mode with the addition of a desired amount of 40% glucose stock solution was fed based on glucose measurements.
To assess if this reduction in MGO modification in the test conditions also corresponded to lower glucose consumption, the specific glucose consumption rate was calculated across the two phases of culture: average over day 0-day 5 and average over day 5-10 (period post temperature shift) (FIG. 4b). The specific glucose consumption rate in the conditions with 2DDG supplementation was lower in both phases. […] In the period post the temperature shift, up to 50% reduction in specific glucose consumption rate relative to that in the control was observed. Thus, a clear correlation has been observed between reduced glucose consumption and the extent of MGO modification of the peptides.
To further assess the applicability of this strategy, the cumulative glucose consumption levels were also evaluated for these conditions in this study (FIG. 6b). This was calculated by using daily glucose concentration measurements via the offline analyzer and by accounting for glucose feeds when added. […]

Regarding `N[C@@H](CO)C(=O)O` [Test 1, Serine], the “MGO modification (total)” value in experiment [1] stood at 0.68%. Take `N=C(N)NCCC[C@H](N)C(=O)O` [arginine, Arginine]: the glucose consumption result in experiment [2] is given as “no additional reduction”.
